US11472808B2, “Substituted pyrrolo[1,2-c]pyrimidines as hepatitis B antiviral agents” (Enanta Pharmaceuticals, Inc., priority 2019, dated 2022)

Tested on: HBV
Assay: HepAD38 anti-HBV assay: reduction of viral product accumulation (virion DNA qPCR, HBsAg/HBeAg ELISA)
Format: cell-based
Conditions: Hepatitis B virus, 120 h; HepAD38 cells; concentration reducing viral product accumulation by 50% relative to no drug controls; harvest five days after compound addition; read-out: HepAD38 EC50
Method: Methods: HepAD38 cells are maintained as previously reported (Ladner et al, Antimicrob. Agents Chemother. 1997, […], 1715). Briefly, cells are passaged upon attaining confluency in DMEM/F12 media in the presence of 10% FBS, Penn/Strep, 250 μg/mL G418, and 1 μg/ml tetracycline. Novel compounds are screened by first washing cells three times with PBS to remove tetracycline, and plating in 96 well plates at 35,000 cells/well. Compounds dissolved in DMSO are then diluted 1:200 into wells containing cells. Five days after compound addition, material is harvested for analysis. For an extended 8 day analysis, cells are plated and treated as described above, but media and compound are refreshed on d2 and d5 post initial treatment.
On harvest day, virion DNA is obtained by lysing with Sidestep Lysis and Stabilization Buffer and then quantified via quantitative real time PCR. Commercially available ELISA kits are used to quantitate the viral proteins HBsAg (Alpco) or HbeAg (US Biological) by following the manufacturer's recommended protocol after diluting samples to match the linear range of their respective assays. Irrespective of readout, compound concentrations that reduce viral product accumulation in the cell lysates or supernatants by 50% relative to no drug controls (EC50) are reported; EC50 ranges are as follows: A<0.1 μM; B 0.1-0.4 μM; C>0.4 μM.

Q: Which EC50 does the source give for O=C(O)C1CCCN(C(=O)C2CCCN(CCS(=O)(=O)N[C@H]3CC4=C(c5ccn(C(F)F)n5)[C@H](c5ccc(F)cc5Cl)N=C(c5nccs5)N4C3)C2)C1 (stereo partly drawn) [Example 69] here?
A: > 0.4 µM

Q: Which EC50 does the source give for O=S(=O)(N[C@H]1CC2=C(c3ccn(C(F)F)n3)[C@H](c3ccc(F)cc3Cl)N=C(c3nccs3)N2C1)c1ccc(F)c(F)c1 [Example 393] here?
A: 0.1 to 0.4 µM

Q: O=C(N[C@H]1CC2=C(c3ccn(C(F)F)n3)[C@H](c3ccc(F)cc3Cl)N=C(c3nccs3)N2C1)N1CCOCC1 [Example 207] was tested. Which EC50 did it give?
A: < 0.1 µM

Q: CC[C@H](NS(=O)(=O)N[C@H]1CC2=C(c3ccn(C(F)F)n3)[C@H](c3ccc(F)cc3Cl)N=C(c3nccs3)N2C1)c1ccccn1 [Example 351] was tested. Which EC50 did it give?
A: < 0.1 µM

Q: For C[C@@H](NS(=O)(=O)N[C@H]1CC2=C(c3ccn(C(F)F)n3)[C@H](c3ccc(F)cc3Cl)N=C(c3nccs3)N2C1)c1ccccn1 [Example 159], which EC50 is on record?
A: > 0.4 µM

Q: For CS(=O)(=O)C[C@@]1(O)CC2=C(c3ccn(C(F)F)n3)[C@H](c3ccc(F)cc3Cl)N=C(c3nccs3)N2C1 [Example 144], which EC50 is on record?
A: 0.1 to 0.4 µM

Q: O=S(=O)(N[C@H]1CC2=C(c3ccn(C(F)F)n3)[C@H](c3ccc(F)cc3Cl)N=C(c3nccs3)N2C1)c1ccc2ncccc2c1 [Example 397] was tested. Which EC50 did it give?
A: < 0.1 µM

Q: For O[C@@]1(CCl)CC2=C(c3ccn(C(F)F)n3)[C@H](c3ccc(F)cc3Cl)N=C(c3nccs3)N2C1 [Example 124], which EC50 is on record?
A: < 0.1 µM

Q: How did the EC50 turn out when OCC(O)[C@]1(F)CC2=C(c3ccn(C(F)F)n3)[C@H](c3ccc(F)cc3Cl)N=C(c3nccs3)N2C1 (stereo partly drawn) [Example 169] was run?
A: 0.1 to 0.4 µM

Q: CC1(C)CCCN(S(=O)(=O)N[C@H]2CC3=C(c4ccn(C(F)F)n4)[C@H](c4ccc(F)cc4Cl)N=C(c4nccs4)N3C2)C1 [Example 292] was tested. Which EC50 did it give?
A: < 0.1 µM

Q: For O=C(N[C@H]1CC2=C(c3ccn(C(F)F)n3)[C@H](c3ccc(F)cc3Cl)N=C(c3nccs3)N2C1)c1ncc(-c2ccccn2)s1 [Example 263], which EC50 is on record?
A: 0.1 to 0.4 µM

Q: For O=C(NC1CC1)N[C@H]1CC2=C(c3ccn(C(F)F)n3)[C@H](c3ccc(F)cc3Cl)N=C(c3nccs3)N2C1 [Example 205], which EC50 is on record?
A: < 0.1 µM

Q: Which EC50 does the source give for CC(C)(C)OC(=O)N1CCN(C(=O)N[C@H]2CC3=C(c4ccn(C(F)F)n4)[C@H](c4ccc(F)cc4Cl)N=C(c4nccs4)N3C2)CC1 [Example 220] here?
A: > 0.4 µM

Q: For O=S(=O)(N[C@H]1CC2=C(c3ccn(C(F)F)n3)[C@H](c3ccc(F)cc3Cl)N=C(c3nccs3)N2C1)c1cccc(Cl)c1F [Example 396], which EC50 is on record?
A: 0.1 to 0.4 µM

Q: Which EC50 does the source give for N#CCCCS(=O)(=O)N([C@H]1CC2=C(c3ccn(C(F)F)n3)[C@H](c3ccc(F)cc3Cl)N=C(c3nccs3)N2C1)S(=O)(=O)CCCC#N [Example 136] here?
A: 0.1 to 0.4 µM

Q: With O=C(N[C@H]1CC2=C(c3ccn(C(F)F)n3)[C@H](c3ccc(F)cc3Cl)N=C(c3nccs3)N2C1)OC1CCC1 [Example 253] as the molecule, how does the EC50 read?
A: < 0.1 µM

Q: For O=S(=O)(N[C@H]1CC2=C(c3ccn(C(F)F)n3)[C@H](c3ccc(F)cc3Cl)N=C(c3nccs3)N2C1)c1cc(Cl)cc(Cl)c1 [Example 395], which EC50 is on record?
A: 0.1 to 0.4 µM

Q: For O=S(=O)(N[C@H]1CC2=C(c3ccn(C(F)F)n3)[C@H](c3ccc(F)cc3Cl)N=C(c3nccs3)N2C1)N1CCCC1c1cccnc1 (stereo partly drawn) [Example 283], which EC50 is on record?
A: 0.1 to 0.4 µM

Q: Which EC50 does the source give for O=C(O)C1CCCN(CCS(=O)(=O)N[C@H]2CC3=C(c4ccn(C(F)F)n4)[C@H](c4ccc(F)cc4Cl)N=C(c4nccs4)N3C2)C1 (stereo partly drawn) [Example 68] here?
A: > 0.4 µM

Q: How did the EC50 turn out when CC(O)[C@]1(F)CC2=C(c3ccn(C(F)F)n3)[C@H](c3ccc(F)cc3Cl)N=C(c3nccs3)N2C1 (stereo partly drawn) [Example 176] was run?
A: < 0.1 µM

Q: Which EC50 does the source give for O=C(N[C@H]1CC2=C(c3ccn(C(F)F)n3)[C@H](c3ccc(F)cc3Cl)N=C(c3nccs3)N2C1)N1C[C@H](O)[C@@H](O)C1 [Example 230] here?
A: 0.1 to 0.4 µM

Q: For O=S(=O)(N[C@H]1CC2=C(c3ccn(C(F)F)n3)[C@H](c3ccc(F)cc3Cl)N=C(c3nccs3)N2C1)N1CCCC(F)(F)C1 [Example 278], which EC50 is on record?
A: < 0.1 µM

Q: O=C(O)c1ccc(S(=O)(=O)NCC2(F)CC3=C(c4ccn(C(F)F)n4)[C@H](c4ccc(F)cc4Cl)N=C(c4nccs4)N3C2)cc1 (stereo partly drawn) [Example 192] was tested. Which EC50 did it give?
A: > 0.4 µM

Q: COC(=O)C1CCCN(C(=O)C2CCCN(CCS(=O)(=O)N[C@H]3CC4=C(c5ccn(C(F)F)n5)[C@H](c5ccc(F)cc5Cl)N=C(c5nccs5)N4C3)C2)C1 (stereo partly drawn) [Example 67] was tested. Which EC50 did it give?
A: > 0.4 µM

Q: With O=C(N[C@H]1CC2=C(c3ccn(C(F)F)n3)[C@H](c3ccc(F)cc3Cl)N=C(c3nccs3)N2C1)C(=O)c1ccccc1 [Example 419] as the molecule, how does the EC50 read?
A: 0.1 to 0.4 µM

Q: How did the EC50 turn out when O=C(N[C@H]1CC2=C(c3ccn(C(F)F)n3)[C@H](c3ccc(F)cc3Cl)N=C(c3nccs3)N2C1)OC1CCCCC1 [Example 251] was run?
A: < 0.1 µM

Q: For COC(=O)CC1CCN(CCS(=O)(=O)N[C@H]2CC3=C(c4ccn(C(F)F)n4)[C@H](c4ccc(F)cc4Cl)N=C(c4nccs4)N3C2)CC1 [Example 61], which EC50 is on record?
A: < 0.1 µM

Q: With O=S(=O)(CCCO)N[C@H]1CC2=C(c3ccn(C(F)F)n3)[C@H](c3ccc(F)cc3Cl)N=C(c3nccs3)N2C1 [compound 313] as the molecule, how does the EC50 read?
A: < 0.1 µM

Q: With COC(=O)C1CCCN(CCS(=O)(=O)N[C@H]2CC3=C(c4ccn(C(F)F)n4)[C@H](c4ccc(F)cc4Cl)N=C(c4nccs4)N3C2)C1 (stereo partly drawn) [Example 66] as the molecule, how does the EC50 read?
A: > 0.4 µM

Q: For C#CCNC[C@@]1(O)CC2=C(c3ccn(C(F)F)n3)[C@H](c3ccc(F)cc3Cl)N=C(c3nccs3)N2C1 [Example 114], which EC50 is on record?
A: > 0.4 µM

Q: Which EC50 does the source give for O=C(N[C@H]1CC2=C(c3ccn(C(F)F)n3)[C@H](c3ccc(F)cc3Cl)N=C(c3nccs3)N2C1)N1CCCC1 [Example 209] here?
A: < 0.1 µM

Q: Which EC50 does the source give for O=C(NCc1ccccn1)N[C@H]1CC2=C(c3ccn(C(F)F)n3)[C@H](c3ccc(F)cc3Cl)N=C(c3nccs3)N2C1 [Example 217] here?
A: > 0.4 µM

Q: For OC[C@]1(F)CC2=C(c3ccn(C(F)F)n3)[C@H](c3ccc(F)cc3Cl)N=C(c3nccs3)N2C1 [Example 165], which EC50 is on record?
A: 0.1 to 0.4 µM

Q: How did the EC50 turn out when O=S(=O)(CCN1CCOCC1)N[C@H]1CC2=C(c3ccn(C(F)F)n3)[C@H](c3ccc(F)cc3Cl)N=C(c3nccs3)N2C1 [Example 56] was run?
A: 0.1 to 0.4 µM

Q: For O=C(O)c1ccccc1CS(=O)(=O)N[C@H]1CC2=C(c3ccn(C(F)F)n3)[C@H](c3ccc(F)cc3Cl)N=C(c3nccs3)N2C1 [Example 23], which EC50 is on record?
A: 0.1 to 0.4 µM

Q: OCC(O)[C@@]1(F)CC2=C(c3ccn(C(F)F)n3)[C@H](c3ccc(F)cc3Cl)N=C(c3nccs3)N2C1 (stereo partly drawn) [Example 170] was tested. Which EC50 did it give?
A: 0.1 to 0.4 µM

Q: Which EC50 does the source give for O=C(O)CCS(=O)(=O)N[C@H]1CC2=C(c3ccn(C(F)F)n3)[C@H](c3ccc(F)cc3Cl)N=C(c3nccs3)N2C1 [Example 10] here?
A: > 0.4 µM

Q: How did the EC50 turn out when O=S(=O)(N[C@H]1CC2=C(c3ccn(C(F)F)n3)[C@H](c3ccc(F)cc3Cl)N=C(c3nccs3)N2C1)[C@H]1CC[C@](O)(c2ccccn2)CC1 [Example 104] was run?
A: < 0.1 µM

Q: How did the EC50 turn out when CCCCS(=O)(=O)N[C@H]1CC2=C(c3ccn(C(F)F)n3)[C@H](c3ccc(F)cc3Cl)N=C(c3nccs3)N2C1 [Example 319] was run?
A: < 0.1 µM

Q: CCOC(=O)C(NS(=O)(=O)N[C@H]1CC2=C(c3ccn(C(F)F)n3)[C@H](c3ccc(F)cc3Cl)N=C(c3nccs3)N2C1)c1ccccn1 (stereo partly drawn) [Example 343] was tested. Which EC50 did it give?
A: < 0.1 µM

Q: Which EC50 does the source give for Fc1ccc([C@@H]2N=C(c3nccs3)N3C[C@@H](N4CCNCC4)CC3=C2c2ccn(C(F)F)n2)c(Cl)c1 [Example 45] here?
A: > 0.4 µM

Q: With O=S(=O)(N[C@H]1CC2=C(c3ccn(C(F)F)n3)[C@H](c3ccc(F)cc3Cl)N=C(c3nccs3)N2C1)c1cc(F)cc(F)c1 [Example 407] as the molecule, how does the EC50 read?
A: 0.1 to 0.4 µM

Q: How did the EC50 turn out when C=CCN(C[C@]1(O)CC2=C(c3ccn(C(F)F)n3)[C@H](c3ccc(F)cc3Cl)N=C(c3nccs3)N2C1)S(C)(=O)=O [Example 129] was run?
A: > 0.4 µM

Q: For O=C(N[C@H]1CC2=C(c3ccn(C(F)F)n3)[C@H](c3ccc(F)cc3Cl)N=C(c3nccs3)N2C1)C1(c2ccccn2)CC1 [Example 322], which EC50 is on record?
A: 0.1 to 0.4 µM

Q: How did the EC50 turn out when O=S(=O)(NC1CCCCC1)N[C@H]1CC2=C(c3ccn(C(F)F)n3)[C@H](c3ccc(F)cc3Cl)N=C(c3nccs3)N2C1 [Example 417] was run?
A: < 0.1 µM

Q: With O=S(=O)(N[C@H]1CC2=C(c3ccn(C(F)F)n3)[C@H](c3ccc(F)cc3Cl)N=C(c3nccs3)N2C1)NC1(Cc2ccccn2)CC1 [Example 325] as the molecule, how does the EC50 read?
A: 0.1 to 0.4 µM

Q: N#CC[C@]1(F)CC2=C(c3ccn(C(F)F)n3)[C@H](c3ccc(F)cc3Cl)N=C(c3nccs3)N2C1 [Example 193] was tested. Which EC50 did it give?
A: > 0.4 µM

Q: O=C(N[C@H]1CC2=C(c3ccn(C(F)F)n3)[C@H](c3ccc(F)cc3Cl)N=C(c3nccs3)N2C1)N1CCC(CO)CC1 [Example 216] was tested. Which EC50 did it give?
A: 0.1 to 0.4 µM

Q: Which EC50 does the source give for Fc1ccc([C@@H]2N=C(c3nccs3)N3C[C@@H](Nc4ccc(-c5ccccn5)cc4)CC3=C2c2ccn(C(F)F)n2)c(Cl)c1 [Example 330] here?
A: 0.1 to 0.4 µM

Q: O=S(=O)(N[C@H]1CC2=C(c3ccn(C(F)F)n3)[C@H](c3ccc(F)cc3Cl)N=C(c3nccs3)N2C1)c1c(Cl)cccc1Cl [Example 402] was tested. Which EC50 did it give?
A: 0.1 to 0.4 µM

Q: C=CCOC[C@@]1(O)CC2=C(c3ccn(C(F)F)n3)[C@H](c3ccc(F)cc3Cl)N=C(c3nccs3)N2C1 (single isomer, unassigned) [Example 109] was tested. Which EC50 did it give?
A: 0.1 to 0.4 µM

Q: How did the EC50 turn out when O=C(O)CC(NS(=O)(=O)N[C@H]1CC2=C(c3ccn(C(F)F)n3)[C@H](c3ccc(F)cc3Cl)N=C(c3nccs3)N2C1)c1ccccn1 (stereo partly drawn) [Example 356] was run?
A: 0.1 to 0.4 µM

Q: How did the EC50 turn out when CN(C)CCS(=O)(=O)N[C@H]1CC2=C(c3ccn(C(F)F)n3)[C@H](c3ccc(F)cc3Cl)N=C(c3nccs3)N2C1 [Example 53] was run?
A: < 0.1 µM

Q: How did the EC50 turn out when COC(=O)c1ccccc1S(=O)(=O)NC[C@]1(F)CC2=C(c3ccn(C(F)F)n3)[C@H](c3ccc(F)cc3Cl)N=C(c3nccs3)N2C1 [Example 189] was run?
A: > 0.4 µM
